Assay results reported in PubChem BioAssay (NCI).
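The compound was tested at five concentrations on cells cultured in 96-well plates, with a 48-hour exposure period. GI50 = concentration required for 50% inhibition of growth. TGI: total growth inhibition.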

Columns and labels:
Experiment in all cases: inhibition of tumour cell growth, NCI panel, 48 h
DU-145 prostate = system: DU-145 prostate
SK-MEL-2 melanoma = system: SK-MEL-2 melanoma
UACC-62 melanoma = system: UACC-62 melanoma
RXF 393 renal = system: RXF 393 renal
NCI-H460 lung = system: NCI-H460 lung
HOP-62 NSCLC = system: HOP-62 NSCLC
UACC-257 melanoma = system: UACC-257 melanoma
MDA-MB-435 = system: MDA-MB-435
LOX IMVI melanoma = system: LOX IMVI melanoma
HS 578T breast = system: HS 578T breast
HCT-15 colon = system: HCT-15 colon
SK-MEL-28 melanoma = system: SK-MEL-28 melanoma
RPMI-8226 leukemia = system: RPMI-8226 leukemia
IGROV1 ovarian = system: IGROV1 ovarian
SNB-75 CNS = system: SNB-75 CNS
TK-10 renal = system: TK-10 renal
MCF7 breast = system: MCF7 breast
ACHN renal = system: ACHN renal
HCT-116 colon = system: HCT-116 colon
M14 melanoma = system: M14 melanoma
NCI-H226 lung = system: NCI-H226 lung
SR leukemia = system: SR leukemia
CAKI-1 renal = system: CAKI-1 renal
MDA-MB-231 breast = system: MDA-MB-231 breast
SNB-19 CNS = system: SNB-19 CNS
SF-539 CNS = system: SF-539 CNS
SF-295 CNS = system: SF-295 CNS
EKVX NSCLC = system: EKVX NSCLC
A549 NSCLC = system: A549 NSCLC
A498 renal = system: A498 renal
HCC-2998 colon = system: HCC-2998 colon
HOP-92 NSCLC = system: HOP-92 NSCLC
HL-60(TB) leukemia = system: HL-60(TB) leukemia
UO-31 renal = system: UO-31 renal
SK-OV-3 ovarian = system: SK-OV-3 ovarian
U251 CNS = system: U251 CNS
KM12 colon = system: KM12 colon
786-0 renal = system: 786-0 renal
COLO 205 colon = system: COLO 205 colon
MALME-3M melanoma = system: MALME-3M melanoma
OVCAR-5 ovarian = system: OVCAR-5 ovarian
BT-549 breast = system: BT-549 breast
SN12C renal = system: SN12C renal
SW-620 colon = system: SW-620 colon
OVCAR-4 ovarian = system: OVCAR-4 ovarian
MOLT-4 leukemia = system: MOLT-4 leukemia
SF-268 CNS = system: SF-268 CNS
K-562 leukemia = system: K-562 leukemia
NCI-H522 lung = system: NCI-H522 lung
SK-MEL-5 melanoma = system: SK-MEL-5 melanoma
OVCAR-3 ovarian = system: OVCAR-3 ovarian
NCI/ADR-RES ovarian = system: NCI/ADR-RES ovarian
PC-3 prostate = system: PC-3 prostate
T-47D breast = system: T-47D breast
HT29 colon = system: HT29 colon
OVCAR-8 ovarian = system: OVCAR-8 ovarian
NCI-H23 lung = system: NCI-H23 lung
CCRF-CEM leukemia = system: CCRF-CEM leukemia

## COc1cc(/C=N/n2c(-c3ccccc3)n[nH]c2=O)cc(OC)c1OC
DU-145 prostate
  TGI: > 76.2 µM
SK-MEL-2 melanoma
  TGI: > 59 µM
UACC-62 melanoma
  TGI: > 100 µM
RXF 393 renal
  TGI: 29.8 µM
NCI-H460 lung
  TGI: > 100 µM
HOP-62 NSCLC
  TGI: 33.1 µM
UACC-257 melanoma
  TGI: > 100 µM
MDA-MB-435
  TGI: 6.43 µM
LOX IMVI melanoma
  TGI: > 100 µM
HS 578T breast
  TGI: 20.2 µM
HCT-15 colon
  TGI: > 100 µM
SK-MEL-28 melanoma
  TGI: > 100 µM
RPMI-8226 leukemia
  TGI: > 100 µM
IGROV1 ovarian
  TGI: > 100 µM
SNB-75 CNS
  TGI: > 30.2 µM
TK-10 renal
  TGI: > 65.9 µM
MCF7 breast
  TGI: > 100 µM
ACHN renal
  TGI: 40.5 µM
HCT-116 colon
  TGI: > 100 µM
M14 melanoma
  TGI: > 100 µM
NCI-H226 lung
  TGI: > 100 µM
SR leukemia
  TGI: > 100 µM
CAKI-1 renal
  TGI: 21.7 µM
MDA-MB-231 breast
  TGI: > 61.8 µM
SNB-19 CNS
  TGI: > 43.1 µM
SF-539 CNS
  TGI: 39.1 µM
SF-295 CNS
  TGI: 18 µM
EKVX NSCLC
  TGI: > 100 µM
A549 NSCLC
  TGI: > 100 µM
A498 renal
  TGI: 17.4 µM
HCC-2998 colon
  TGI: > 100 µM
HOP-92 NSCLC
  TGI: > 82.2 µM
HL-60(TB) leukemia
  TGI: > 100 µM
UO-31 renal
  TGI: > 100 µM
SK-OV-3 ovarian
  TGI: > 25 µM
U251 CNS
  TGI: > 42.3 µM
KM12 colon
  TGI: > 100 µM
786-0 renal
  TGI: 48.2 µM
COLO 205 colon
  TGI: > 100 µM
MALME-3M melanoma
  TGI: 48.8 µM
OVCAR-5 ovarian
  TGI: > 100 µM
BT-549 breast
  TGI: 18.6 µM
SN12C renal
  TGI: > 100 µM
SW-620 colon
  TGI: > 100 µM
OVCAR-4 ovarian
  TGI: > 100 µM
MOLT-4 leukemia
  TGI: > 100 µM
SF-268 CNS
  TGI: 40.7 µM
K-562 leukemia
  TGI: > 100 µM
NCI-H522 lung
  TGI: > 58.1 µM
SK-MEL-5 melanoma
  TGI: > 100 µM
OVCAR-3 ovarian
  TGI: > 37.5 µM
NCI/ADR-RES ovarian
  TGI: 9.96 µM
PC-3 prostate
  TGI: > 100 µM
T-47D breast
  TGI: > 100 µM
HT29 colon
  TGI: > 100 µM
OVCAR-8 ovarian
  TGI: > 100 µM
NCI-H23 lung
  TGI: > 71.8 µM
CCRF-CEM leukemia
  TGI: > 100 µM

## CNC(=O)NCC1OC(n2cnc3c(NC(=O)Nc4ccccc4)ncnc32)C(O[Si](C)(C)C(C)(C)C)C1CC(=O)N(C)OC (centres undefined)
DU-145 prostate
  GI50: 14.7 µM
  TGI: > 100 µM
SK-MEL-2 melanoma
  GI50: 8.08 µM
  TGI: > 91.2 µM
UACC-62 melanoma
  GI50: 41.9 µM
  TGI: > 100 µM
RXF 393 renal
  GI50: 4.02 µM
  TGI: 12.7 µM
NCI-H460 lung
  GI50: 5.32 µM
  TGI: > 100 µM
HOP-62 NSCLC
  GI50: 22 µM
  TGI: > 100 µM
UACC-257 melanoma
  GI50: 8.25 µM
  TGI: > 100 µM
MDA-MB-435
  GI50: 5.66 µM
  TGI: > 100 µM
LOX IMVI melanoma
  GI50: 5.12 µM
  TGI: > 100 µM
HS 578T breast
  GI50: 7.39 µM
  TGI: > 100 µM
HCT-15 colon
  GI50: 4.8 µM
  TGI: > 100 µM
SK-MEL-28 melanoma
  GI50: 5.21 µM
  TGI: > 100 µM
RPMI-8226 leukemia
  GI50: 1.58 µM
  TGI: 5.4 µM
IGROV1 ovarian
  GI50: 4 µM
  TGI: > 81.1 µM
SNB-75 CNS
  GI50: 6.32 µM
  TGI: > 100 µM
TK-10 renal
  GI50: 9.17 µM
  TGI: > 100 µM
MCF7 breast
  GI50: 4.11 µM
  TGI: > 100 µM
ACHN renal
  GI50: 7.87 µM
  TGI: > 100 µM
HCT-116 colon
  GI50: 3.95 µM
  TGI: > 100 µM
M14 melanoma
  GI50: 8.36 µM
  TGI: > 100 µM
NCI-H226 lung
  GI50: 15.8 µM
  TGI: > 100 µM
SR leukemia
  GI50: 1.63 µM
  TGI: 4.06 µM
CAKI-1 renal
  GI50: 53.8 µM
  TGI: > 100 µM
MDA-MB-231 breast
  GI50: 8.47 µM
  TGI: > 100 µM
SNB-19 CNS
  GI50: > 23 µM
  TGI: > 100 µM
SF-539 CNS
  GI50: 8.21 µM
  TGI: > 100 µM
SF-295 CNS
  GI50: 9.09 µM
  TGI: > 100 µM
EKVX NSCLC
  GI50: 12.3 µM
  TGI: > 100 µM
A549 NSCLC
  GI50: 5.88 µM
  TGI: > 100 µM
A498 renal
  GI50: 6.06 µM
  TGI: > 63.5 µM
HCC-2998 colon
  GI50: 30.6 µM
  TGI: > 100 µM
HOP-92 NSCLC
  GI50: 4.33 µM
  TGI: > 49.3 µM
HL-60(TB) leukemia
  GI50: 1.69 µM
  TGI: 4.23 µM
UO-31 renal
  GI50: 5.7 µM
  TGI: > 100 µM
SK-OV-3 ovarian
  GI50: > 72.6 µM
  TGI: > 100 µM
U251 CNS
  GI50: 4.85 µM
  TGI: > 100 µM
KM12 colon
  GI50: 10.6 µM
  TGI: > 100 µM
786-0 renal
  GI50: 7.06 µM
  TGI: > 100 µM
COLO 205 colon
  GI50: 12.3 µM
  TGI: > 100 µM
MALME-3M melanoma
  GI50: 7.51 µM
  TGI: > 100 µM
OVCAR-5 ovarian
  GI50: 16.8 µM
  TGI: > 100 µM
BT-549 breast
  GI50: 9.58 µM
  TGI: > 100 µM
SN12C renal
  GI50: 17.1 µM
  TGI: > 100 µM
SW-620 colon
  GI50: > 100 µM
  TGI: > 100 µM
OVCAR-4 ovarian
  GI50: 16.6 µM
  TGI: > 100 µM
MOLT-4 leukemia
  GI50: 2.23 µM
  TGI: 9.36 µM
SF-268 CNS
  GI50: 8.29 µM
  TGI: > 100 µM
K-562 leukemia
  GI50: 3.12 µM
  TGI: > 100 µM
NCI-H522 lung
  GI50: 7.76 µM
  TGI: > 100 µM
SK-MEL-5 melanoma
  GI50: 4.92 µM
  TGI: > 100 µM
OVCAR-3 ovarian
  GI50: 5.84 µM
  TGI: > 100 µM
NCI/ADR-RES ovarian
  GI50: > 100 µM
  TGI: > 100 µM
PC-3 prostate
  GI50: 4.95 µM
  TGI: > 100 µM
T-47D breast
  GI50: 7.41 µM
  TGI: > 100 µM
HT29 colon
  GI50: 4.12 µM
  TGI: > 100 µM
OVCAR-8 ovarian
  GI50: 6.52 µM
  TGI: > 100 µM
NCI-H23 lung
  GI50: 23.6 µM
  TGI: > 100 µM
CCRF-CEM leukemia
  GI50: 6.37 µM
  TGI: > 100 µM
